Measurements taken from the supplement of paper PMC10307832.

How the values were obtained:
Assay in all cases: relative viability (nuclei count vs DMSO), 5 days (fraction); higher = more cells survive
[1] = compound: COc1cc2nccc(Oc3ccc(NC(=O)C4(C(=O)Nc5ccc(F)cc5)CC4)cc3)c2cc1OC [Cabozantinib] + C[C@]1(O)C[C@@H](c2nc(-c3ccc4ccc(-c5ccccc5)nc4c3)c3c(N)nccn32)C1 [Linsitinib] (partner 1 µM)
Procedure, shortened: (§1)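 The day after seeding in 1536-well plates, lung cancer cell lines were treated by pin tool with a single drug, or with a fixed anchor-drug dose together with five library-drug doses (not always all listed) in √10 steps. After 5 days, a combined fix-and-stain solution (final 0.05% Triton X-100, 1% formaldehyde, 1 ug/ml Hoechst) was added. Nuclei counted on 4× images gave relative viability as treated counts over vehicle counts, reported as the median of duplicate plates.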

Zosuquidar + OSI-027 = compound: O[C@@H](COc1cccc2ncccc12)CN1CCN([C@@H]2c3ccccc3[C@@H]3[C@H](c4ccccc42)C3(F)F)CC1 [Zosuquidar] + COc1cccc2cc(-c3nc([C@H]4CC[C@H](C(=O)O)CC4)n4ncnc(N)c34)[nH]c12 [OSI-027] (partner 0.5 µM)
Procedure, shortened: as §1

Kobe2602 + Bortezomib = compound: C1=CC(=CC=C1NC(=S)NNC2=C(C=C(C=C2[N+](=O)[O-])C(F)(F)F)[N+](=O)[O-])F [Kobe2602] + CC(C)C[C@H](NC(=O)[C@H](Cc1ccccc1)NC(=O)c1cnccn1)B(O)O [Bortezomib] (partner 0.002 µM)
Procedure, shortened: as §1

Kobe2602 + Palbociclib = compound: C1=CC(=CC=C1NC(=S)NNC2=C(C=C(C=C2[N+](=O)[O-])C(F)(F)F)[N+](=O)[O-])F [Kobe2602] + CC(=O)c1c(C)c2cnc(Nc3ccc(N4CCNCC4)cn3)nc2n(C2CCCC2)c1=O [Palbociclib] (partner 0.5 µM)
Procedure, shortened: as §1

Cell Line	relative viability ([1]; first compound 0.02 µM)	relative viability ([1]; first compound 0.06325 µM)	relative viability ([1]; first compound 0.2 µM)	relative viability ([1]; first compound 0.6325 µM)	relative viability ([1]; first compound 2 µM)	relative viability (Zosuquidar + OSI-027; first compound 0.01 µM)	relative viability (Zosuquidar + OSI-027; first compound 0.03162 µM)	relative viability (Zosuquidar + OSI-027; first compound 0.1 µM)	relative viability (Zosuquidar + OSI-027; first compound 0.3162 µM)	relative viability (Zosuquidar + OSI-027; first compound 1 µM)	relative viability (Kobe2602 + Bortezomib; first compound 0.2 µM)	relative viability (Kobe2602 + Bortezomib; first compound 0.6325 µM)	relative viability (Kobe2602 + Bortezomib; first compound 2 µM)	relative viability (Kobe2602 + Bortezomib; first compound 6.325 µM)	relative viability (Kobe2602 + Bortezomib; first compound 20 µM)	relative viability (Kobe2602 + Palbociclib; first compound 0.2 µM)	relative viability (Kobe2602 + Palbociclib; first compound 0.6325 µM)	relative viability (Kobe2602 + Palbociclib; first compound 2 µM)	relative viability (Kobe2602 + Palbociclib; first compound 6.325 µM)	relative viability (Kobe2602 + Palbociclib; first compound 20 µM)
201T	1.08	1.04	0.993	1.01	0.973	0.777	0.722	0.646	0.803	0.741	0.956	1.05	1.12	1.18	1.13	0.378	0.375	0.351	0.394	0.322
A549	0.621	0.641	0.481	0.534	0.373															
A-427	1.12	1.1	1.08	1.1	1.13	0.409	0.511	0.4	0.507	0.501	0.998	0.991	0.982	0.779	1.07	0.593	0.571	0.522	0.606	0.532
ABC-1	0.719	0.816	0.81	0.87	0.754	0.479	0.426	0.607	0.54	0.509	0.42	0.256	0.283	0.35	0.336	0.579	0.762	0.559	0.853	0.739
BEN	0.906	0.993	0.974	0.795	0.597	0.31	0.297	0.288	0.301	0.313	0.908	0.897	0.938	0.821	0.99	0.502	0.497	0.481	0.483	0.443
CAL-12T	0.861	0.874	0.87	0.786	0.816	0.715	0.867	0.478	0.951	0.562	0.997	1.17	0.921	0.931	0.93	0.515	0.6	0.411	0.408	0.407
COR-L23	1.03	1.27	0.866	0.954	0.863	0.738	0.702	0.688	0.858	0.757	0.88	1.04	0.914	1.07	0.92	0.31	0.296	0.275	0.318	0.333
COR-L 105	0.945	1.04		0.937	0.839	0.595	0.679	0.519	0.79	0.613	0.688	1.14	0.739	0.692	0.746	0.423	0.413	0.422	0.438	0.383
Calu-6	1.06	0.975	1.01	0.871	0.881						1.11	1.04	0.945	0.971	0.951					
ChaGo-K-1						0.595	0.479	0.644	0.553	0.522	1.04	1.09	0.788	1.06	0.946	0.977	0.926	0.83	0.894	0.83
EBC-1	1.04	0.942	0.432	0.121	0.116						0.528	0.479	0.539	0.511	0.612					
EKVX	0.955	1.11	0.806	0.989	1.09	0.743	0.622	0.536	0.707	0.762	1.13	1.08	0.994	1.02	1.1	0.456	0.386	0.375	0.408	0.379
EMC-BAC-2	0.842	0.853	0.775	0.834	0.797	0.365	0.365	0.373	0.435	0.376	1.08	1.17	1.06	1.12	1.12	0.522	0.543	0.494	0.566	0.525
EPLC-272H	1.3	1.05	1.03	1.06	1.17	0.275	0.335	0.273	0.31	0.275	1.03	1.01	0.778	0.866	0.873	0.337	0.357	0.352	0.321	0.359
H3255	1.16	0.966		1.01	1.1	0.639	0.532	0.451	0.624	0.565	0.691	0.782	0.743	0.818	0.766	0.336	0.337	0.333	0.273	0.303
HARA	1.03	1.06	0.874	0.994	0.986	0.49		0.415	0.564	0.398	1.17	1.1	0.994	1.14	1.12	0.331	0.227	0.237	0.268	0.366
HCC-15	1	0.958	0.846	0.843	0.736	0.653	0.64	0.568	0.779	0.725	0.959	1.1	0.964	0.994	1.03	0.698	0.72	0.662	0.547	0.618
HCC-44	0.807	0.795	0.726	0.64	0.573	0.53	0.391	0.542	0.521	0.581	0.882	0.897	0.826	0.905	0.813	0.988	0.932	0.975	0.924	0.887
HCC-78	0.428	0.423	0.194	0.261	0.193	0.346	0.356		0.422	0.294	0.543	0.574	0.446	0.244	0.57	0.522	0.446	0.479	0.535	0.52
HCC-366	0.772	0.649	0.703	0.637	0.554	0.911	1.09	0.845	1.19	0.956	1.13	1.01	1.01	1.07	1.12	0.377	0.344	0.35	0.384	0.395
HCC-827	0.945	1.02		1.03	0.972	0.828	0.723	0.673	0.828	0.788	1.09	1.15	0.965	1.01	1.08	0.528	0.574	0.621	0.489	0.53

Cell Line	relative viability ([1]; first compound 0.02 µM)	relative viability ([1]; first compound 0.06325 µM)	relative viability ([1]; first compound 0.2 µM)	relative viability ([1]; first compound 0.6325 µM)	relative viability ([1]; first compound 2 µM)	relative viability (Zosuquidar + OSI-027; first compound 0.01 µM)	relative viability (Zosuquidar + OSI-027; first compound 0.03162 µM)	relative viability (Zosuquidar + OSI-027; first compound 0.1 µM)	relative viability (Zosuquidar + OSI-027; first compound 0.3162 µM)	relative viability (Zosuquidar + OSI-027; first compound 1 µM)	relative viability (Kobe2602 + Bortezomib; first compound 0.2 µM)	relative viability (Kobe2602 + Bortezomib; first compound 0.6325 µM)	relative viability (Kobe2602 + Bortezomib; first compound 2 µM)	relative viability (Kobe2602 + Bortezomib; first compound 6.325 µM)	relative viability (Kobe2602 + Bortezomib; first compound 20 µM)	relative viability (Kobe2602 + Palbociclib; first compound 0.2 µM)	relative viability (Kobe2602 + Palbociclib; first compound 0.6325 µM)	relative viability (Kobe2602 + Palbociclib; first compound 2 µM)	relative viability (Kobe2602 + Palbociclib; first compound 6.325 µM)	relative viability (Kobe2602 + Palbociclib; first compound 20 µM)
HOP-62	1.09	0.974	1.1	1.01	1.02	0.768	0.833	0.817	0.865	0.906	0.875	1.15	0.508	0.75	0.818	0.442	0.499	0.419	0.456	0.485
IA-LM	0.704	0.689	0.683	0.559	0.696							0.873	0.707	0.765	0.759					
LC-2-ad	0.846	0.795	0.659	0.56	0.461	0.865	0.814	0.829	1.09	0.864	0.946	1	0.941	1.02	0.993	0.466	0.514	0.533	0.506	0.484
LK-2	0.724	0.73	0.619	0.633	0.716	0.172	0.216	0.21	0.209	0.174						0.904	0.628	0.81	0.649	0.687
NCI-H358	0.833	0.868	0.851	0.735	0.736	0.779	0.769	0.618	0.736	0.734						0.14	0.128	0.142	0.144	0.138
NCI-H522						0.714	0.58	0.756	0.898	0.857						1.13	1.1	0.915	1.11	0.993
NCI-H596	1.19	1.17	1.11	0.997	0.994	0.714		0.724	1.01	0.689	1.08	1	1.08	0.987	0.965					
NCI-H1299	1.03	1	0.982	0.96	0.966						1.01	0.982	0.986	1.07	0.995					
NCI-H1395	1.25	1.27	1	1.13	0.958	0.653	0.578	0.552	0.797	0.677						0.636	0.69	0.638	0.589	0.647
NCI-H1563	0.853	1.3	1.37	1.11	0.957	0.751	0.663	0.753	0.762	0.827	0.954	1.13	0.71	0.933	0.794					
NCI-H1623						0.432	0.464	0.421	0.441	0.43										
NCI-H1648						0.243		0.234	0.288	0.245						0.237	0.275	0.248	0.228	0.283
NCI-H1650						0.737	0.607	0.601	0.759	0.669	0.232	0.192	0.207	0.192	0.207	0.36	0.35	0.365	0.366	0.261
NCI-H1703	0.601	0.35	0.287	0.165	0.146						0.371	0.379	0.286	0.367	0.342					
NCI-H1793	1.21	1.01	0.7	0.814	0.65	0.315	0.389		0.287	0.311						0.326	0.318	0.304	0.31	0.293
NCI-H1944		1.18	1.09	1.12	1.07	0.381	0.384	0.328	0.479	0.412						0.351	0.343	0.311	0.333	0.371
NCI-H2170						0.701	0.731	0.641	0.743	0.713						0.429	0.388	0.375	0.392	0.393
NCI-H2342						0.605	0.597	0.558	0.668	0.624						0.537	0.563	0.467	0.532	0.535
SK-MES-1	1.12	1.1	0.988	1.12	1.06	0.639	0.665	0.549	0.638	0.652						0.323	0.338	0.335	0.28	0.201
SW 900						0.676	0.507	0.493	0.646	0.706						0.621	0.53	0.559	0.567	0.551
